# PubChem BioAssay (NCI)
#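 Where inhibition never reached the appropriate level, the endpoint shown equals the highest concentration tested. Otherwise, values were interpolated linearly from a five-concentration, 48-hour dose response in 96-well plates. At the GI50, growth is halved. Definition used: TGI = concentration required for complete inhibition of growth.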
# Key:
# Assay in all cases: NCI-60 cell line screen, 48 h
# HS 578T breast = system: HS 578T breast
# SN12C renal = system: SN12C renal
# HOP-92 NSCLC = system: HOP-92 NSCLC
# NCI-H226 lung = system: NCI-H226 lung
# SK-MEL-28 melanoma = system: SK-MEL-28 melanoma
# SW-620 colon = system: SW-620 colon
# U251 CNS = system: U251 CNS
# M14 melanoma = system: M14 melanoma
# A498 renal = system: A498 renal
# SF-295 CNS = system: SF-295 CNS
# 786-0 renal = system: 786-0 renal
# LOX IMVI melanoma = system: LOX IMVI melanoma
# OVCAR-4 ovarian = system: OVCAR-4 ovarian
# BT-549 breast = system: BT-549 breast
# HCC-2998 colon = system: HCC-2998 colon
# UACC-62 melanoma = system: UACC-62 melanoma
# OVCAR-8 ovarian = system: OVCAR-8 ovarian
# UO-31 renal = system: UO-31 renal
# TK-10 renal = system: TK-10 renal
# A549 NSCLC = system: A549 NSCLC
# NCI-H460 lung = system: NCI-H460 lung
# MCF7 breast = system: MCF7 breast
# MDA-MB-435 = system: MDA-MB-435
# OVCAR-5 ovarian = system: OVCAR-5 ovarian
# NCI-H23 lung = system: NCI-H23 lung
# HCT-116 colon = system: HCT-116 colon
# CAKI-1 renal = system: CAKI-1 renal
# MOLT-4 leukemia = system: MOLT-4 leukemia
# HCT-15 colon = system: HCT-15 colon
# MALME-3M melanoma = system: MALME-3M melanoma
# PC-3 prostate = system: PC-3 prostate
# DU-145 prostate = system: DU-145 prostate
# CCRF-CEM leukemia = system: CCRF-CEM leukemia
# SR leukemia = system: SR leukemia
# HOP-62 NSCLC = system: HOP-62 NSCLC
# SK-MEL-2 melanoma = system: SK-MEL-2 melanoma
# KM12 colon = system: KM12 colon
# K-562 leukemia = system: K-562 leukemia
# SK-OV-3 ovarian = system: SK-OV-3 ovarian
# RXF 393 renal = system: RXF 393 renal
# HT29 colon = system: HT29 colon
# COLO 205 colon = system: COLO 205 colon
# MDA-MB-231 breast = system: MDA-MB-231 breast
# NCI-H522 lung = system: NCI-H522 lung
# RPMI-8226 leukemia = system: RPMI-8226 leukemia
# SK-MEL-5 melanoma = system: SK-MEL-5 melanoma
# IGROV1 ovarian = system: IGROV1 ovarian
# SF-268 CNS = system: SF-268 CNS
# UACC-257 melanoma = system: UACC-257 melanoma
# EKVX NSCLC = system: EKVX NSCLC
# SNB-19 CNS = system: SNB-19 CNS
# HL-60(TB) leukemia = system: HL-60(TB) leukemia
# OVCAR-3 ovarian = system: OVCAR-3 ovarian
# ACHN renal = system: ACHN renal
# SNB-75 CNS = system: SNB-75 CNS
# SF-539 CNS = system: SF-539 CNS
# NCI/ADR-RES ovarian = system: NCI/ADR-RES ovarian
# T-47D breast = system: T-47D breast
smiles,measurement,setting,value
COc1cc2c(Oc3ccc4[nH]c(C)cc4c3F)ncnc2cc1OCCCN1CCCC1,GI50,HS 578T breast,1320 nM
same,TGI,HS 578T breast,6.89 µM
same,GI50,SN12C renal,3.84 µM
same,TGI,SN12C renal,19.9 µM
same,GI50,HOP-92 NSCLC,761 nM
same,TGI,HOP-92 NSCLC,5.2 µM
same,GI50,NCI-H226 lung,675 nM
same,TGI,NCI-H226 lung,9.15 µM
same,GI50,SK-MEL-28 melanoma,2570 nM
same,TGI,SK-MEL-28 melanoma,6.68 µM
same,GI50,SW-620 colon,3.77 µM
same,TGI,SW-620 colon,14.7 µM
same,GI50,U251 CNS,1430 nM
same,TGI,U251 CNS,6.99 µM
same,GI50,M14 melanoma,1880 nM
same,TGI,M14 melanoma,3.78 µM
same,GI50,A498 renal,129 nM
same,TGI,A498 renal,720 nM
same,GI50,SF-295 CNS,2810 nM
same,TGI,SF-295 CNS,13.2 µM
same,GI50,786-0 renal,3.57 µM
same,TGI,786-0 renal,13.3 µM
same,GI50,LOX IMVI melanoma,1620 nM
same,TGI,LOX IMVI melanoma,4.31 µM
same,GI50,OVCAR-4 ovarian,1380 nM
same,TGI,OVCAR-4 ovarian,8.99 µM
same,GI50,BT-549 breast,2980 nM
same,TGI,BT-549 breast,10.8 µM
same,GI50,HCC-2998 colon,3.77 µM
same,TGI,HCC-2998 colon,11.8 µM
same,GI50,UACC-62 melanoma,2770 nM
same,TGI,UACC-62 melanoma,6.73 µM
same,GI50,OVCAR-8 ovarian,3.88 µM
same,TGI,OVCAR-8 ovarian,15.6 µM
same,GI50,UO-31 renal,544 nM
same,TGI,UO-31 renal,5.64 µM
same,GI50,TK-10 renal,1570 nM
same,TGI,TK-10 renal,6.98 µM
same,GI50,A549 NSCLC,3.07 µM
same,TGI,A549 NSCLC,13 µM
same,GI50,NCI-H460 lung,3.29 µM
same,TGI,NCI-H460 lung,11.6 µM
same,GI50,MCF7 breast,3.79 µM
same,TGI,MCF7 breast,18.5 µM
same,GI50,MDA-MB-435,2750 nM
same,TGI,MDA-MB-435,8.98 µM
same,GI50,OVCAR-5 ovarian,4.72 µM
same,TGI,OVCAR-5 ovarian,19.5 µM
same,GI50,NCI-H23 lung,5.17 µM
same,TGI,NCI-H23 lung,22.7 µM
same,GI50,HCT-116 colon,3.96 µM
same,TGI,HCT-116 colon,14.7 µM
same,GI50,CAKI-1 renal,2790 nM
same,TGI,CAKI-1 renal,13.9 µM
same,GI50,MOLT-4 leukemia,2550 nM
same,TGI,MOLT-4 leukemia,13.8 µM
same,GI50,HCT-15 colon,3.16 µM
same,TGI,HCT-15 colon,15.2 µM
same,GI50,MALME-3M melanoma,2480 nM
same,TGI,MALME-3M melanoma,7.02 µM
same,GI50,PC-3 prostate,4.63 µM
same,TGI,PC-3 prostate,17.5 µM
same,GI50,DU-145 prostate,4.66 µM
same,TGI,DU-145 prostate,16 µM
same,GI50,CCRF-CEM leukemia,3.74 µM
same,TGI,CCRF-CEM leukemia,16.8 µM
same,GI50,SR leukemia,3.06 µM
same,TGI,SR leukemia,15 µM
same,GI50,HOP-62 NSCLC,2030 nM
same,TGI,HOP-62 NSCLC,10.5 µM
same,GI50,SK-MEL-2 melanoma,3.84 µM
same,TGI,SK-MEL-2 melanoma,10.3 µM
same,GI50,KM12 colon,4.33 µM
same,TGI,KM12 colon,15.3 µM
same,GI50,K-562 leukemia,2150 nM
same,TGI,K-562 leukemia,7.44 µM
same,GI50,SK-OV-3 ovarian,5.53 µM
same,TGI,SK-OV-3 ovarian,19 µM
same,GI50,RXF 393 renal,1070 nM
same,TGI,RXF 393 renal,3.31 µM
same,GI50,HT29 colon,1700 nM
same,TGI,HT29 colon,4.09 µM
same,GI50,COLO 205 colon,1830 nM
same,TGI,COLO 205 colon,3.58 µM
same,GI50,MDA-MB-231 breast,2540 nM
same,TGI,MDA-MB-231 breast,7.58 µM
same,GI50,NCI-H522 lung,2330 nM
same,TGI,NCI-H522 lung,5.99 µM
same,GI50,RPMI-8226 leukemia,3.63 µM
same,TGI,RPMI-8226 leukemia,10.7 µM
same,GI50,SK-MEL-5 melanoma,1620 nM
same,TGI,SK-MEL-5 melanoma,3.17 µM
same,GI50,IGROV1 ovarian,1450 nM
same,TGI,IGROV1 ovarian,14.2 µM
same,GI50,SF-268 CNS,4.06 µM
same,TGI,SF-268 CNS,16.6 µM
same,GI50,UACC-257 melanoma,1750 nM
same,TGI,UACC-257 melanoma,3.53 µM
same,GI50,EKVX NSCLC,6.07 µM
same,TGI,EKVX NSCLC,22.1 µM
same,GI50,SNB-19 CNS,6.47 µM
same,TGI,SNB-19 CNS,22.2 µM
same,GI50,HL-60(TB) leukemia,2040 nM
same,TGI,HL-60(TB) leukemia,4.37 µM
same,GI50,OVCAR-3 ovarian,2250 nM
same,TGI,OVCAR-3 ovarian,7.56 µM
same,GI50,ACHN renal,1960 nM
same,TGI,ACHN renal,14.9 µM
same,GI50,SNB-75 CNS,959 nM
same,TGI,SNB-75 CNS,5.09 µM
same,GI50,SF-539 CNS,460 nM
same,TGI,SF-539 CNS,2470 nM
same,GI50,NCI/ADR-RES ovarian,9.69 µM
same,TGI,NCI/ADR-RES ovarian,24.7 µM
same,GI50,T-47D breast,1800 nM
same,TGI,T-47D breast,4.72 µM
